Test results published in US20090155266A1, “Methods and Compositions Relating to Vascular Endothelial Growth Factor and TH2 Mediated Inflammatory Diseases” (YALE UNIVERSITY, priority 2004, published 2009).

What was measured:
[1] = system: OVA sensitized and challenged wild type mice; experiment: OVA sensitization and challenge model of Th2 inflammation; type: in vivo; settings: for antigen-stimulated IL-4 production / antigen-stimulated IL-13 production: BAL from OVA sensitized and challenged mice, antagonist IP; for onset of a Th2 mediated inflammatory disease: disease induced by allergen (ovalbumin sensitization) or genetic predisposition, summary statement; for airways hyperresponsiveness (AHR), methacholine responsiveness / BAL and tissue inflammation: wild type mice sensitized and challenged with OVA, SU1498 10 mg/kg/day or VEGF TrapR1R2 25 mg/kg, IP; for BAL and tissue inflammation: starting the day before first OVA dose
Description: The OVA model was undertaken in wild type mice as previously described (Wang et al., 2000). Sensitization and challenge were undertaken in the presence and absence of the VEGF receptor antagonist SU1498 (10 mg/kg/day) or VEGF TrapR1R2 (Regeneron, Inc., Tarrytown, N.Y.) (25 mg/kg) which were given via an intraperitoneal (IP) route starting the day before the first dose of OVA. The VEGF TrapR1R2 is a fusion protein comprised of the extracellular domains of VEGFR1 and VEGFR2 coupled to the Fc-portion of IgG that binds VEGF-A, but not VEGF-B or VEGF-C (Cursiefen et al., 2004). T-bet null mutant mice (Finotto et al., 2002) were obtained from the Jackson Laboratories (Bar Harbor, Me.). At 6 weeks of age they were randomized to SU1498 or control vehicle as described above. Two weeks later phenotypic characterization was undertaken as described above.

VEGF-A = molecular target: T1, VEGF-A (Homo sapiens, UniProt P15692); settings: cited from earlier work
T1 sequence (P15692 207-320 limits assumed): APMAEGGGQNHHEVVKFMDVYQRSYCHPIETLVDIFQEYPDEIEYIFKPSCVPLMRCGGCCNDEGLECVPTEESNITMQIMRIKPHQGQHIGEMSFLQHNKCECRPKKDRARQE

VEGF-B = molecular target: T2, VEGF-B (Homo sapiens, UniProt P49765); settings: cited from earlier work
T2 sequence (P49765 22-136 limits assumed): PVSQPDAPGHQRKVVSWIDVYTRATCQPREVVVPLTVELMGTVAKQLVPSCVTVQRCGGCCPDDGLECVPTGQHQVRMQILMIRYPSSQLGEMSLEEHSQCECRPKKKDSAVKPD

VEGF-C = molecular target: T3, VEGF-C (Homo sapiens, UniProt P49767); settings: cited from earlier work
T3 sequence (P49767 112-227 limits assumed): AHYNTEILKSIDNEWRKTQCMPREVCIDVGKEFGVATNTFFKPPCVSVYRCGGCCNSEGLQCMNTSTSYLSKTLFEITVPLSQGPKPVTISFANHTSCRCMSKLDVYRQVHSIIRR

| Compound | antigen-stimulated IL-4 production [1] | antigen-stimulated IL-13 production [1] | onset of a Th2 mediated inflammatory disease [1] | airways hyperresponsiveness (AHR), methacholine responsiveness [1] | BAL and tissue inflammation [1] | binding to VEGF-A (VEGF-A) | binding to VEGF-B (VEGF-B) | binding to VEGF-C (VEGF-C) |
| --- | --- | --- | --- | --- | --- | --- | --- | --- |
| CC(C)c1cc(/C=C(\C#N)C(=O)NCCCc2ccccc2)cc(C(C)C)c1O [SU1498, reference compound] | markedly decreased | markedly decreased | prevented onset | markedly decreased | markedly decreased |  |  |  |
| VEGF TrapR1R2: fusion protein comprised of the extracellular domains of VEGFR1 and VEGFR2 coupled to the Fc-portion of IgG (Regeneron) | markedly decreased | markedly decreased | prevented onset | abrogates | abrogates | binds | not | not |
